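1) Cells in 96-well plates. 2) Compound, 48 h, 5 concentrations. 3) Linear interpolation between surrounding doses. 4) Unreached endpoint = highest concentration. TGI denotes the concentration required for complete inhibition of growth.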
What was measured:
Experiment in all cases: NCI anticancer screen, dose series, 48 h
786-0 renal = test system: 786-0 renal
A498 renal = test system: A498 renal
A549 NSCLC = test system: A549 NSCLC
ACHN renal = test system: ACHN renal
BT-549 breast = test system: BT-549 breast
CAKI-1 renal = test system: CAKI-1 renal
CCRF-CEM leukemia = test system: CCRF-CEM leukemia
COLO 205 colon = test system: COLO 205 colon
DU-145 prostate = test system: DU-145 prostate
EKVX NSCLC = test system: EKVX NSCLC
HCC-2998 colon = test system: HCC-2998 colon
HCT-116 colon = test system: HCT-116 colon
HCT-15 colon = test system: HCT-15 colon
HL-60(TB) leukemia = test system: HL-60(TB) leukemia
HOP-62 NSCLC = test system: HOP-62 NSCLC
HOP-92 NSCLC = test system: HOP-92 NSCLC
HS 578T breast = test system: HS 578T breast
HT29 colon = test system: HT29 colon
IGROV1 ovarian = test system: IGROV1 ovarian
K-562 leukemia = test system: K-562 leukemia
KM12 colon = test system: KM12 colon
LOX IMVI melanoma = test system: LOX IMVI melanoma
M14 melanoma = test system: M14 melanoma
MALME-3M melanoma = test system: MALME-3M melanoma
MCF7 breast = test system: MCF7 breast
MDA-MB-231 breast = test system: MDA-MB-231 breast
MDA-MB-435 = test system: MDA-MB-435
MDA-N = test system: MDA-N
MOLT-4 leukemia = test system: MOLT-4 leukemia
NCI-H226 lung = test system: NCI-H226 lung
NCI-H23 lung = test system: NCI-H23 lung
NCI-H460 lung = test system: NCI-H460 lung
NCI-H522 lung = test system: NCI-H522 lung
NCI/ADR-RES ovarian = test system: NCI/ADR-RES ovarian
OVCAR-3 ovarian = test system: OVCAR-3 ovarian
OVCAR-4 ovarian = test system: OVCAR-4 ovarian
OVCAR-5 ovarian = test system: OVCAR-5 ovarian
OVCAR-8 ovarian = test system: OVCAR-8 ovarian
PC-3 prostate = test system: PC-3 prostate
RPMI-8226 leukemia = test system: RPMI-8226 leukemia
RXF 393 renal = test system: RXF 393 renal
SF-268 CNS = test system: SF-268 CNS
SF-295 CNS = test system: SF-295 CNS
SF-539 CNS = test system: SF-539 CNS
SK-MEL-2 melanoma = test system: SK-MEL-2 melanoma
SK-MEL-28 melanoma = test system: SK-MEL-28 melanoma
SK-MEL-5 melanoma = test system: SK-MEL-5 melanoma
SK-OV-3 ovarian = test system: SK-OV-3 ovarian
SN12C renal = test system: SN12C renal
SNB-19 CNS = test system: SNB-19 CNS
SR leukemia = test system: SR leukemia
SW-620 colon = test system: SW-620 colon
T-47D breast = test system: T-47D breast
TK-10 renal = test system: TK-10 renal
U251 CNS = test system: U251 CNS
UACC-257 melanoma = test system: UACC-257 melanoma
UACC-62 melanoma = test system: UACC-62 melanoma
UO-31 renal = test system: UO-31 renal
SNB-75 CNS = test system: SNB-75 CNS
DLD-1 colon = test system: DLD-1 colon
DMS 114 small cell lung = test system: DMS 114 small cell lung
DMS 273 small cell lung = test system: DMS 273 small cell lung
LXFL 529 NSCLC = test system: LXFL 529 NSCLC
M19-MEL melanoma = test system: M19-MEL melanoma
SNB-78 CNS = test system: SNB-78 CNS

`O=[N+]([O-])c1cc(C2(N3CCCCC3)CCCCC2)sc1Br` showed a TGI (786-0 renal) of 39.2 µM, a TGI (A498 renal) of 16.1 µM and a TGI (A549 NSCLC) of 33.7 µM. It also gave a TGI (ACHN renal) of 11.5 µM, a TGI (BT-549 breast) of 24.3 µM and a TGI (CAKI-1 renal) of 15.6 µM. It also gave a TGI (CCRF-CEM leukemia) of 7.33 µM, a TGI (COLO 205 colon) of 17.7 µM and a TGI (DU-145 prostate) of 10.2 µM. For the same compound, the TGI (EKVX NSCLC) was 24.6 µM, the TGI (HCC-2998 colon) was 3.41 µM and the TGI (HCT-116 colon) was 35.5 µM. The TGI (HCT-15 colon) was 17.2 µM, the TGI (HL-60(TB) leukemia) was 5.24 µM and the TGI (HOP-62 NSCLC) was 17.3 µM. The TGI (HOP-92 NSCLC) was 21.7 µM, the TGI (HS 578T breast) was greater than 58.5 µM and the TGI (HT29 colon) was 15.4 µM. The TGI (IGROV1 ovarian) was 25.1 µM, the TGI (K-562 leukemia) was 14.1 µM and the TGI (KM12 colon) was 20.2 µM. The TGI (LOX IMVI melanoma) was 15.1 µM, the TGI (M14 melanoma) was 21.9 µM and the TGI (MALME-3M melanoma) was 20 µM. For the same compound, the TGI (MCF7 breast) was 8.6 µM, the TGI (MDA-MB-231 breast) was 27.4 µM and the TGI (MDA-MB-435) was 17 µM. For the same compound, the TGI (MDA-N) was 23.3 µM, the TGI (MOLT-4 leukemia) was 8.12 µM and the TGI (NCI-H226 lung) was 28.1 µM. The TGI (NCI-H23 lung) was 26.5 µM, the TGI (NCI-H460 lung) was 29.5 µM and the TGI (NCI-H522 lung) was 6.78 µM. For the same compound, the TGI (NCI/ADR-RES ovarian) was 28.2 µM, the TGI (OVCAR-3 ovarian) was 7.4 µM and the TGI (OVCAR-4 ovarian) was 27.1 µM. It also gave a TGI (OVCAR-5 ovarian) of 38.2 µM, a TGI (OVCAR-8 ovarian) of 24 µM and a TGI (PC-3 prostate) of 13.1 µM. It also gave a TGI (RPMI-8226 leukemia) of 4.45 µM, a TGI (RXF 393 renal) of 13.2 µM and a TGI (SF-268 CNS) of 28.1 µM. The TGI (SF-295 CNS) was 30.1 µM, the TGI (SF-539 CNS) was 17.9 µM and the TGI (SK-MEL-2 melanoma) was 21.4 µM. The TGI (SK-MEL-28 melanoma) was 23.9 µM, the TGI (SK-MEL-5 melanoma) was 18.7 µM and the TGI (SK-OV-3 ovarian) was 31.2 µM. For the same compound, the TGI (SN12C renal) was 21.8 µM, the TGI (SNB-19 CNS) was 27.6 µM and the TGI (SR leukemia) was 10.7 µM. The TGI (SW-620 colon) was 21.3 µM, the TGI (T-47D breast) was 4.64 µM and the TGI (TK-10 renal) was 6.61 µM. The TGI (U251 CNS) was 19.1 µM, the TGI (UACC-257 melanoma) was 4.51 µM and the TGI (UACC-62 melanoma) was 23.5 µM. The TGI (UO-31 renal) was 24.6 µM.
Compound `c1ccc(-c2cnc(SC(c3ccccc3)c3ccccc3)[nH]2)cc1` has a TGI (786-0 renal) greater than 100 µM, a TGI (A498 renal) greater than 100 µM and a TGI (A549 NSCLC) greater than 100 µM. The TGI (ACHN renal) was greater than 100 µM, the TGI (BT-549 breast) was greater than 100 µM and the TGI (CAKI-1 renal) was greater than 100 µM. The TGI (CCRF-CEM leukemia) was greater than 100 µM, the TGI (COLO 205 colon) was 44.1 µM and the TGI (DU-145 prostate) was greater than 100 µM. The TGI (EKVX NSCLC) was 60 µM, the TGI (HCC-2998 colon) was 35.8 µM and the TGI (HCT-116 colon) was greater than 100 µM. For the same compound, the TGI (HCT-15 colon) was 38.8 µM, the TGI (HL-60(TB) leukemia) was 40.7 µM and the TGI (HOP-62 NSCLC) was greater than 100 µM. The TGI (HOP-92 NSCLC) was 54 µM, the TGI (HS 578T breast) was greater than 100 µM and the TGI (HT29 colon) was greater than 100 µM. For the same compound, the TGI (IGROV1 ovarian) was greater than 100 µM, the TGI (K-562 leukemia) was greater than 100 µM and the TGI (KM12 colon) was greater than 100 µM. The TGI (LOX IMVI melanoma) was 59 µM, the TGI (M14 melanoma) was greater than 100 µM and the TGI (MALME-3M melanoma) was 73.9 µM. It also gave a TGI (MCF7 breast) of 74.7 µM, a TGI (MDA-MB-231 breast) greater than 100 µM and a TGI (MDA-MB-435) greater than 100 µM. For the same compound, the TGI (MDA-N) was 69.6 µM, the TGI (MOLT-4 leukemia) was greater than 100 µM and the TGI (NCI-H226 lung) was 67.3 µM. For the same compound, the TGI (NCI-H23 lung) was 52.5 µM, the TGI (NCI-H460 lung) was 46.8 µM and the TGI (NCI-H522 lung) was 54.6 µM. It also gave a TGI (NCI/ADR-RES ovarian) of 85.4 µM, a TGI (OVCAR-3 ovarian) greater than 100 µM and a TGI (OVCAR-4 ovarian) greater than 100 µM. It also gave a TGI (OVCAR-5 ovarian) greater than 100 µM, a TGI (OVCAR-8 ovarian) greater than 100 µM and a TGI (PC-3 prostate) of 84.7 µM. The TGI (RPMI-8226 leukemia) was 48.5 µM, the TGI (RXF 393 renal) was 78.5 µM and the TGI (SF-268 CNS) was greater than 100 µM. It also gave a TGI (SF-295 CNS) greater than 100 µM, a TGI (SF-539 CNS) greater than 100 µM and a TGI (SK-MEL-2 melanoma) of 53.2 µM. The TGI (SK-MEL-28 melanoma) was greater than 100 µM, the TGI (SK-MEL-5 melanoma) was 27 µM and the TGI (SK-OV-3 ovarian) was greater than 100 µM. For the same compound, the TGI (SN12C renal) was 65.4 µM, the TGI (SNB-19 CNS) was greater than 100 µM and the TGI (SNB-75 CNS) was greater than 100 µM. The TGI (SR leukemia) was 64.3 µM, the TGI (SW-620 colon) was greater than 100 µM and the TGI (T-47D breast) was 54.7 µM. It also gave a TGI (TK-10 renal) greater than 100 µM, a TGI (U251 CNS) greater than 100 µM and a TGI (UACC-257 melanoma) of 55.5 µM. It also gave a TGI (UACC-62 melanoma) of 42.1 µM and a TGI (UO-31 renal) greater than 100 µM.
With `CCC(=O)OC1CCn2c1nc1c2C(=O)C(C)=C(NC(C)=O)C1=O` (stereo not given) the TGI (786-0 renal) was 11.9 µM, the TGI (A498 renal) was 32.5 µM and the TGI (A549 NSCLC) was 3.62 µM. For the same compound, the TGI (ACHN renal) was 11.7 µM, the TGI (CAKI-1 renal) was 3.61 µM and the TGI (CCRF-CEM leukemia) was 3.89 µM. The TGI (COLO 205 colon) was 11.6 µM, the TGI (DLD-1 colon) was 3.96 µM and the TGI (DMS 114 small cell lung) was 1.62 µM. For the same compound, the TGI (DMS 273 small cell lung) was 3.37 µM, the TGI (EKVX NSCLC) was 3.53 µM and the TGI (HCC-2998 colon) was 5.13 µM. The TGI (HCT-116 colon) was 3.21 µM, the TGI (HL-60(TB) leukemia) was 3.89 µM and the TGI (HOP-62 NSCLC) was 24.1 µM. The TGI (HOP-92 NSCLC) was 3.5 µM, the TGI (HT29 colon) was 3.59 µM and the TGI (IGROV1 ovarian) was 3.98 µM. It also gave a TGI (K-562 leukemia) of 4.43 µM, a TGI (KM12 colon) of 4.03 µM and a TGI (LOX IMVI melanoma) of 2.7 µM. It also gave a TGI (LXFL 529 NSCLC) of 2.72 µM, a TGI (M14 melanoma) of 3.32 µM and a TGI (M19-MEL melanoma) of 3.31 µM. For the same compound, the TGI (MALME-3M melanoma) was 2.96 µM, the TGI (NCI-H226 lung) was 3.27 µM and the TGI (NCI-H23 lung) was 3.49 µM. For the same compound, the TGI (NCI-H460 lung) was 14.1 µM, the TGI (NCI-H522 lung) was 2.94 µM and the TGI (OVCAR-3 ovarian) was 0.572 µM. For the same compound, the TGI (OVCAR-4 ovarian) was 1.67 µM, the TGI (OVCAR-5 ovarian) was 3.39 µM and the TGI (OVCAR-8 ovarian) was 2.09 µM. It also gave a TGI (RPMI-8226 leukemia) of 5.66 µM, a TGI (RXF 393 renal) of 3.11 µM and a TGI (SF-268 CNS) of 3.2 µM. For the same compound, the TGI (SF-295 CNS) was 4.53 µM, the TGI (SF-539 CNS) was 3.21 µM and the TGI (SK-MEL-2 melanoma) was 3.41 µM. The TGI (SK-MEL-28 melanoma) was 3.76 µM, the TGI (SK-MEL-5 melanoma) was 3.27 µM and the TGI (SK-OV-3 ovarian) was 11.4 µM. It also gave a TGI (SN12C renal) of 3.19 µM, a TGI (SNB-19 CNS) of 6.75 µM and a TGI (SNB-75 CNS) of 10.3 µM. The TGI (SNB-78 CNS) was 4.35 µM, the TGI (SR leukemia) was 5.66 µM and the TGI (SW-620 colon) was 2.93 µM. The TGI (TK-10 renal) was 17 µM, the TGI (U251 CNS) was 3.84 µM and the TGI (UACC-257 melanoma) was 3.15 µM. For the same compound, the TGI (UACC-62 melanoma) was 3.43 µM and the TGI (UO-31 renal) was 4.73 µM.

From PubChem BioAssay (NCI)
